Measurements taken from ChEMBL document CHEMBL1135832, “Syntheses, calcium channel agonist-antagonist modulation activities, nitric oxide release, and voltage-clamp studies of 2-nitrooxyethyl 1,4-dihydro- 2,6-dimethyl-3-nitro-4-(2-trifluoromethylphenyl)pyridine-5-carboxylate enantiomers” (J Med Chem, 2002).

What was measured:
Assay type in all cases: functional
Cavia porcellus [1] = species: Cavia porcellus; experiment: In vitro NO ([…]) release by nitrite quanititation using Griess reaction
Cavia porcellus [2] = species: Cavia porcellus; experiment: In vitro calcium channel modulating activity in guinea pig left atrium (GPLA); details: Cardiac atrium
Cavia porcellus [3] = species: Cavia porcellus; experiment: In vitro NO ([…]) release by nitrite quanititation using Griess reaction without N-acetyl-cysteamine
Cavia porcellus [4] = species: Cavia porcellus; experiment: In vitro NO ([…]) release by nitrite quanititation using Griess reaction in presence of N-acetyl-cysteamine

IC50 (Cavia porcellus [2]) [µM] | SMILES | % of NO release (Cavia porcellus [1]) | % of NO release (Cavia porcellus [3]) | % of NO release (Cavia porcellus [4])
– | CC1=NC(C)=C([N+](=O)[O-])[C@@H](c2ccccc2C(F)(F)F)/C1=C(\O)OCCO[N+](=O)[O-] | 1.09 | – | –
16 | CC1=NC(C)=C([N+](=O)[O-])[C@H](c2ccccc2C(F)(F)F)/C1=C(\O)OCCO[N+](=O)[O-] | 2.7 | – | –
– | O=[N+]([O-])OCC(CO[N+](=O)[O-])O[N+](=O)[O-] [NITROGLYCERIN] | – | 0.18 | 5.3
